Measurements as given in patent publication US20230233569A1 (Revolution Medicines, Inc., priority 2020, published 2023).
Where two headings read alike, the source gives them in different places.

Columns and labels:
Test in all cases: Ras-Raf disruption / FRET / MOA assay (BRAF RBD)
Type in all cases: biochemical
[1] = target: KRAS G12D (Homo sapiens, UniProt P01116+P62937, G12D); conditions: with Cyclophilin A
Method in brief: (§1)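 TR-FRET in 25 mM HEPES pH 7.3, 100 mM NaCl, 5 mM MgCl2, 0.1% BSA, 0.002% Tween20 with 25 μM Cyclophilin A, 12.5 nM His6-Ras-GMPPNP, 50 nM GST-BRAF RBD; compound 10-point 3-fold series from 30 μM. After 3 h at 25 °C, Eu anti-His/APC anti-GST added for 1.5 h; IC50 from ratio decrease versus DMSO.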

[2] = target: KRAS G12S (Homo sapiens, UniProt P01116+P62937, G12S); conditions: with Cyclophilin A
Method in brief: as §1

[3] = target: KRAS G12V (Homo sapiens, UniProt P01116+P62937, G12V); conditions: with Cyclophilin A
Method in brief: as §1

[4] = target: KRAS G13C (Homo sapiens, UniProt P01116+P62937, G13C); conditions: with Cyclophilin A
Method in brief: as §1

[5] = target: KRAS G13D (Homo sapiens, UniProt P01116+P62937, G13D); conditions: with Cyclophilin A
Method in brief: as §1

[6] = target: KRAS Q61H (Homo sapiens, UniProt P01116+P62937, Q61H)
Method in brief: as §1

[7] = target: KRAS WT (Homo sapiens, UniProt P01116+P62937); conditions: with Cyclophilin A
Method in brief: as §1

[8] = target: NRAS G12C (Homo sapiens, UniProt P01111+P62937, G12C)
Method in brief: as §1

[9] = target: NRAS Q61K (Homo sapiens, UniProt P01111+P62937, Q61K)
Method in brief: as §1

[10] = target: NRAS Q61R (Homo sapiens, UniProt P01111+P62937, Q61R)
Method in brief: as §1

[11] = target: NRAS WT (Homo sapiens, UniProt P01111+P62937)
Method in brief: as §1

[12] = target: KRAS G12C (Homo sapiens, UniProt P01116+P62937, G12C); conditions: with Cyclophilin A
Method in brief: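 His6-K-Ras G12C-GMPPNP (12.5 nM), GST-BRAF RBD (50 nM) and tagless Cyclophilin A (25 μM) incubated 3 h at 25 °C with compound (10-point 3-fold series from 30 μM), pH 7.3 HEPES buffer. Anti-His Eu/anti-GST APC added for 1.5 h; decreased TR-FRET ratio vs DMSO gives IC50.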

[13] = KRAS G12D FRET data IC50, Ras-Raf disruption
[14] = KRAS G12S FRET data IC50, Ras-Raf disruption
[15] = KRAS G12V FRET data IC50, Ras-Raf disruption
[16] = KRAS G13C FRET data IC50, Ras-Raf disruption
[17] = KRAS G13D FRET data IC50, Ras-Raf disruption
[18] = KRAS WT FRET data IC50, Ras-Raf disruption
[19] = NRAS G12C FRET data IC50, NRAS G12C
[20] = KRAS G12C FRET data IC50, Ras-Raf disruption
[21] = Ras-Raf disruption, read-out: KRAS G12D FRET data IC50
[22] = Ras-Raf disruption, read-out: KRAS G12S FRET data IC50
[23] = Ras-Raf disruption, read-out: KRAS G12V FRET data IC50
[24] = Ras-Raf disruption, read-out: KRAS G13C FRET data IC50
[25] = Ras-Raf disruption, read-out: KRAS G13D FRET data IC50
[26] = KRAS Q61H, read-out: KRAS Q61H FRET data IC50
[27] = Ras-Raf disruption, read-out: KRAS WT FRET data IC50
[28] = NRAS G12C, read-out: NRAS G12C FRET data IC50
[29] = NRAS Q61K, read-out: NRAS Q61K FRET data IC50
[30] = NRAS Q61R, read-out: NRAS Q61R FRET data IC50
[31] = NRAS WT, read-out: NRAS WT FRET data IC50
[32] = Ras-Raf disruption, read-out: KRAS G12C FRET data IC50

KRAS G13C, sequence (P01116 1-169 isoform P01116-2 G13C limits assumed): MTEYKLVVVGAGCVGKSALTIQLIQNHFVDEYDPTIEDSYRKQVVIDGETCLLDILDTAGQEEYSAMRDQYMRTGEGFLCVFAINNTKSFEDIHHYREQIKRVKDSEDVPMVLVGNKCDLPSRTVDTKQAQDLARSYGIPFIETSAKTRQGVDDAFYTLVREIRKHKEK
KRAS G13C, sequence (P62937 whole entry): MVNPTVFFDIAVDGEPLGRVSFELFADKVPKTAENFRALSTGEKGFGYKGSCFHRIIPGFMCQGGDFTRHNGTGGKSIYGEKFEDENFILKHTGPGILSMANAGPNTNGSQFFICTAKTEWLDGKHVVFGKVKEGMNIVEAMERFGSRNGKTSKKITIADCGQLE
KRAS G12C, sequence (P01116 1-169 isoform P01116-2 G12C limits assumed): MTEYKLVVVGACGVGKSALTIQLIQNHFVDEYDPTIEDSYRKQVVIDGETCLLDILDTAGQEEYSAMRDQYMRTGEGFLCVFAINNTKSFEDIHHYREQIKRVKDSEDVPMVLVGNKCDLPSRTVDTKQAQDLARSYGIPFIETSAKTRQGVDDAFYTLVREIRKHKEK
KRAS G12C, sequence (P62937 whole entry): as the sequence (P62937 whole entry) above
KRAS G12V, sequence (P01116 1-169 isoform P01116-2 G12V limits assumed): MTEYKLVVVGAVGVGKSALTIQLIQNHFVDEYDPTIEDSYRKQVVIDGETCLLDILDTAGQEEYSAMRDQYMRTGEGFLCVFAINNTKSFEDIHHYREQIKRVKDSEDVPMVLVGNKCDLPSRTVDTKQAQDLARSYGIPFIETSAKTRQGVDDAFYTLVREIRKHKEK
KRAS G12V, sequence (P62937 whole entry): as the sequence (P62937 whole entry) above
KRAS Q61H, sequence (P01116 1-169 isoform P01116-2 Q61H limits assumed): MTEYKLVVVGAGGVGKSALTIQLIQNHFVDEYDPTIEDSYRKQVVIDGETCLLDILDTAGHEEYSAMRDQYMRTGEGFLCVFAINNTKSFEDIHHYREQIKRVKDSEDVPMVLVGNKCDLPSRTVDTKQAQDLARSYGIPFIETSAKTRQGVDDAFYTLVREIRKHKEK
KRAS Q61H, sequence (P62937 whole entry): as the sequence (P62937 whole entry) above
KRAS WT, sequence (P01116 1-169 isoform P01116-2 limits assumed): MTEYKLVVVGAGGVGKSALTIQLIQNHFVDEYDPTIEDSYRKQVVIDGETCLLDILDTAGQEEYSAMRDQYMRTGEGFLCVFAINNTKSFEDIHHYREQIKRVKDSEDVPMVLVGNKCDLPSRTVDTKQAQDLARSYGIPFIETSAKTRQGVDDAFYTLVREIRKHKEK
KRAS WT, sequence (P62937 whole entry): as the sequence (P62937 whole entry) above
NRAS Q61K, sequence (P01111 whole entry Q61K): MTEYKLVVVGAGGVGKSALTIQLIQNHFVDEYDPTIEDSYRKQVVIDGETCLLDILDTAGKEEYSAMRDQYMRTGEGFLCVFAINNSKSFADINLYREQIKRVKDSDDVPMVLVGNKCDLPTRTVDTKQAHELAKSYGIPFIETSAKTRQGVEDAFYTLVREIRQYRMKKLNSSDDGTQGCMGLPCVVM
NRAS Q61K, sequence (P62937 whole entry): as the sequence (P62937 whole entry) above
KRAS G12D, sequence (P01116 1-169 isoform P01116-2 G12D limits assumed): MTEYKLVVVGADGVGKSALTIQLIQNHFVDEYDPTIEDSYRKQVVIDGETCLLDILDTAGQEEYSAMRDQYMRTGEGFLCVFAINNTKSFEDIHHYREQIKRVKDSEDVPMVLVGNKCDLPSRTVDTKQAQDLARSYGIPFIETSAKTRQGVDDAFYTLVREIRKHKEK
KRAS G12D, sequence (P62937 whole entry): as the sequence (P62937 whole entry) above
KRAS G13D, sequence (P01116 1-169 isoform P01116-2 G13D limits assumed): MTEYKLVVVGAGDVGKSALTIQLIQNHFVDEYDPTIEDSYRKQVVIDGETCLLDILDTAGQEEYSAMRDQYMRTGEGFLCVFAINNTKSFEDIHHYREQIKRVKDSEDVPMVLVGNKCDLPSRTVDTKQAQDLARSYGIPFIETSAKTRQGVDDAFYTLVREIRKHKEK
KRAS G13D, sequence (P62937 whole entry): as the sequence (P62937 whole entry) above
NRAS G12C, sequence (P01111 whole entry G12C): as the sequence (P01111 whole entry Q61K) above, with G12C, K61Q counted along it
NRAS G12C, sequence (P62937 whole entry): as the sequence (P62937 whole entry) above
NRAS WT, sequence (P01111 whole entry): as the sequence (P01111 whole entry Q61K) above, with K61Q counted along it
NRAS WT, sequence (P62937 whole entry): as the sequence (P62937 whole entry) above
NRAS Q61R, sequence (P01111 whole entry Q61R): as the sequence (P01111 whole entry Q61K) above, with K61R counted along it
NRAS Q61R, sequence (P62937 whole entry): as the sequence (P62937 whole entry) above
KRAS G12S, sequence (P01116 1-169 isoform P01116-2 G12S limits assumed): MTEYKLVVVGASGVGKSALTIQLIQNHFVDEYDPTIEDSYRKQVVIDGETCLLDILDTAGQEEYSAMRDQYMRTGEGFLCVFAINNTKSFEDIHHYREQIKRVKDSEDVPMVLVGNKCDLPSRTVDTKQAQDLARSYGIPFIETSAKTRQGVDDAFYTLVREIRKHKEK
KRAS G12S, sequence (P62937 whole entry): as the sequence (P62937 whole entry) above

Compound	IC50 [1, 13] [nM]	IC50 [2, 14] [nM]	IC50 [3, 15] [nM]	IC50 [4, 16] [nM]	IC50 [5, 17] [nM]	IC50 [6] [nM]	IC50 [7, 18] [nM]	IC50 [8, 19] [nM]	IC50 [9] [nM]	IC50 [10] [nM]	IC50 [11] [nM]	IC50 [12, 20] [nM]	IC50 [1, 21] [nM]	IC50 [2, 22] [nM]	IC50 [3, 23] [nM]	IC50 [4, 24] [nM]	IC50 [5, 25] [nM]	IC50 [6, 26] [nM]	IC50 [7, 27] [nM]	IC50 [8, 28] [nM]	other results
CCn1c(-c2cccnc2[C@H](C)OC)c2c3cc(ccc31)-c1cc(O)cc(c1)C[C@H](NC(=O)[C@H](C1CCCC1)N(C)C(=O)CN(C)C(=O)[C@@H]1N[C@@H]1C1(OC)CC1)C(=O)N1CCC[C@H](N1)C(=O)OCC(C)(C)C2 (single isomer, unassigned) [Example 323]	100 to 1000	10 to 100	10 to 100	10 to 100	100 to 1000	10 to 100	10 to 100	10 to 100	100 to 1000	100 to 1000	10 to 100	10 to 100	–	–	–	–	–	–	–	–	–
CCn1c(-c2cccnc2[C@H](C)OC)c2c3cc(ccc31)-c1cc(O)cc(c1)C[C@H](NC(=O)[C@H](C(C)C)N(C)C(=O)C13CC(CN1C(=O)[C@@H]1CN1)C3)C(=O)N1CCC[C@H](N1)C(=O)OCC(C)(C)C2 [Example 163]	100 to 1000	100 to 1000	100 to 1000	100 to 1000	100 to 1000	10 to 100	100 to 1000	100 to 1000	100 to 1000	100 to 1000	100 to 1000	100 to 1000	–	–	–	–	–	–	–	–	–
CCn1c(-c2cccnc2[C@H](C)OC)c2c3cc(ccc31)-c1cc(O)cc(c1)C[C@H](NC(=O)[C@H](C(C)C)N(C)C(=O)C13CC(CN1C(=O)[C@H]1CN1)C3)C(=O)N1CCC[C@H](N1)C(=O)OCC(C)(C)C2 [Example 164]	100 to 1000	100 to 1000	100 to 1000	100 to 1000	100 to 1000	10 to 100	100 to 1000	100 to 1000	1000 to 10000	1000 to 10000	100 to 1000	100 to 1000	–	–	–	–	–	–	–	–	–
CCn1c(-c2cccnc2[C@H](C)OC)c2c3cc(ccc31)-c1cc(O)cc(c1)C[C@H](NC(=O)[C@H](C(C)C)N(C)C(=O)[C@H]1CCCN(C(=O)[C@H]3CN3)C1)C(=O)N1CCC[C@H](N1)C(=O)OCC(C)(C)C2 [Example 165]	–	–	–	–	–	–	–	–	–	–	–	–	100 to 1000	100 to 1000	10 to 100	100 to 1000	100 to 1000	100 to 1000	100 to 1000	< 10	IC50 [9, 29]: 1000 to 10000 nM; IC50 [10, 30]: 1000 to 10000 nM; IC50 [11, 31]: 100 to 1000 nM; IC50 [12, 32]: < 10 nM
CCn1c(-c2cccnc2[C@H](C)OC)c2c3cc(ccc31)-c1cc(O)cc(c1)C[C@H](NC(=O)[C@H](C(C)C)N(C)C(=O)[C@H]1C[C@H](NC(=O)[C@@H]3CN3)C1)C(=O)N1CCC[C@H](N1)C(=O)OCC(C)(C)C2 [Example 167]	–	–	–	–	–	–	–	–	–	–	–	–	10 to 100	10 to 100	10 to 100	10 to 100	10 to 100	10 to 100	10 to 100	< 10	IC50 [9, 29]: 10 to 100 nM; IC50 [10, 30]: 100 to 1000 nM; IC50 [11, 31]: 10 to 100 nM; IC50 [12, 32]: < 10 nM
CCn1c(-c2cccnc2[C@H](C)OC)c2c3cc(ccc31)-c1cc(O)cc(c1)C[C@H](NC(=O)[C@H](C1CCCC1)N(C)C(=O)CN(C)C(=O)[C@@H]1N[C@@H]1C1CC1)C(=O)N1CCC[C@H](N1)C(=O)OCC(C)(C)C2 [Example 170]	10 to 100	10 to 100	10 to 100	10 to 100	10 to 100	10 to 100	10 to 100	10 to 100	10 to 100	10 to 100	10 to 100	10 to 100	–	–	–	–	–	–	–	–	–
CCn1c(-c2cccnc2[C@H](C)OC)c2c3cc(ccc31)-c1cc(O)cc(c1)C[C@H](NC(=O)[C@H](C(C)C)N(C)C(=O)C13CCC(CC1)N3C(=O)[C@H]1CN1)C(=O)N1CCC[C@H](N1)C(=O)OCC(C)(C)C2 [Example 202]	100 to 1000	100 to 1000	100 to 1000	100 to 1000	100 to 1000	10 to 100	100 to 1000	10 to 100	100 to 1000	100 to 1000	100 to 1000	10 to 100	–	–	–	–	–	–	–	–	–
CCn1c(-c2cccnc2[C@H](C)OC)c2c3cc(ccc31)-c1csc(n1)C[C@H](NC(=O)[C@H](C1CCCC1)N(C)C(=O)CN(C)C(=O)[C@@H]1N[C@@H]1C1CC1)C(=O)N1CCC[C@H](N1)C(=O)OCC(C)(C)C2 [Example 210]	1000 to 10000	1000 to 10000	1000 to 10000	1000 to 10000	1000 to 10000	100 to 1000	1000 to 10000	100 to 1000	1000 to 10000	1000 to 10000	1000 to 10000	100 to 1000	–	–	–	–	–	–	–	–	–
CCn1c(-c2cccnc2[C@H](C)OC)c2c3cc(ccc31)-c1cc(O)cc(c1)C[C@H](NC(=O)[C@H](C(C)C)N1CC[C@H](NC(=O)[C@H]3CN3)C1=O)C(=O)N1CCC[C@H](N1)C(=O)OCC(C)(C)C2 [Example 213]	1000 to 10000	100 to 1000	100 to 1000	10 to 100	100 to 1000	10 to 100	10 to 100	10 to 100	100 to 1000	100 to 1000	10 to 100	10 to 100	–	–	–	–	–	–	–	–	–
CCn1c(-c2cccnc2[C@H](C)OC)c2c3cc(ccc31)-c1csc(n1)C[C@H](NC(=O)[C@H](C(C)C)N(C)C(=O)N(C)C1CN(C(=O)[C@H]3CN3)C1)C(=O)N1CCC[C@H](N1)C(=O)OCC(C)(C)C2 [Example 220]	–	–	–	–	–	–	–	–	–	–	–	–	1000 to 10000	100 to 1000	100 to 1000	100 to 1000	100 to 1000	10 to 100	100 to 1000	100 to 1000	IC50 [9, 29]: 10 to 100 nM; IC50 [10, 30]: 100 to 1000 nM; IC50 [11, 31]: 100 to 1000 nM; IC50 [12, 32]: 10 to 100 nM
CCn1c(-c2cccnc2[C@H](C)OC)c2c3cc(ccc31)-c1csc(n1)C[C@H](NC(=O)[C@H](C(C)C)N(C)C(=O)N(C)C1CN(C(=O)[C@@H]3CN3)C1)C(=O)N1CCC[C@H](N1)C(=O)OCC(C)(C)C2 [Example 221]	–	–	–	–	–	–	–	–	–	–	–	–	1000 to 10000	100 to 1000	100 to 1000	100 to 1000	100 to 1000	100 to 1000	100 to 1000	100 to 1000	IC50 [9, 29]: 100 to 1000 nM; IC50 [10, 30]: 100 to 1000 nM; IC50 [11, 31]: 100 to 1000 nM; IC50 [12, 32]: 100 to 1000 nM
CCn1c(-c2cc(C3CCN(C)CC3)cnc2[C@H](C)OC)c2c3cc(ccc31)-c1cc(O)cc(c1)C[C@H](NC(=O)[C@H](C1CCCC1)N(C)C(=O)CN(C)C(=O)[C@H]1CN1)C(=O)N1CCC[C@H](N1)C(=O)OCC(C)(C)C2 [Example 230]	10 to 100	10 to 100	10 to 100	< 10	10 to 100	< 10	10 to 100	< 10	100 to 1000	10 to 100	10 to 100	< 10	–	–	–	–	–	–	–	–	–
CCn1c(-c2cccnc2[C@H](C)OC)c2c3cc(ccc31)-c1csc(n1)C[C@H](NC(=O)[C@H](C(C)C)N(C)C(=O)N1CC[C@H]1CN(C)C(=O)[C@@H]1CN1)C(=O)N1CCC[C@H](N1)C(=O)OCC(C)(C)C2 [Example 235]	–	–	–	–	–	–	–	–	–	–	–	–	1000 to 10000	1000 to 10000	1000 to 10000	1000 to 10000	1000 to 10000	100 to 1000	1000 to 10000	100 to 1000	IC50 [9, 29]: 100 to 1000 nM; IC50 [10, 30]: 1000 to 10000 nM; IC50 [11, 31]: 1000 to 10000 nM; IC50 [12, 32]: 100 to 1000 nM
